Experimental data published in patent US11981640B1, “4,5-bis(4-chlorophenyl)-1-hexyl-2-(3-hydroxy-4-methoxyphenyl)-1H-imidazole as an antimicrobial compound” (KING FAISAL UNIVERSITY, priority 2023, dated 2024).

Key:
Type in all cases: cell-based
Conditions in all cases: after 10, 20, 40 and 60 minutes at all dilutions 1:100, 1:200, 1:400, 1:800
Staphylococcus aureus = experiment: Antimicrobial testing by agar dilution, Staphylococcus aureus
Method: (§1) The antimicrobial properties of the 4,5-bis(4-chlorophenyl)-1-hexyl-2-(3-hydroxy-4-methoxyphenyl)-1H-imidazole (5) were studied by the method of agar dilution. Test solutions of each compound were prepared in concentration of 1% using dimethylformamide as a solvent then they are diluted in physiological solution to obtain the final experimental dilutions 1:100, 1:200, 1:400, 1:800. The effect of these substances were compared with furacillin in a controllable study. The testing microbes used were gram positive bacteria Staphylococcus aureus, gram negative bacteria Escherichia coli, Pseudomonas aeruginosa and Candida albicans fungi were taken. The experiments used for this survey were meat-pentonlu agar (EPA) for cultivation of bacteria and Saburo environment for fungi. Each experiment used 1 ml of test solution on each plate 500 min. Add 2 drops of emulsified with microbes feel. All experimental samples were taken from the agar after 10, 20, 40, 60 minutes in the environment on the basis of Patrk planted. Bacteria were cultivated at a temperature of 37° C. for 1 day and the mushroom was kept in a thermostat for 2 hours at a temperature of 28° C. in the. Then results were checked.

Escherichia coli = experiment: Antimicrobial testing by agar dilution, Escherichia coli
Method: as §1

Pseudomonas aeruginosa = experiment: Antimicrobial testing by agar dilution, Pseudomonas aeruginosa
Method: as §1

Candida albicans = experiment: Antimicrobial testing by agar dilution, Candida albicans
Method: as §1

CCCCCCn1c(-c2ccc(OC)c(O)c2)nc(-c2ccc(Cl)cc2)c1-c1ccc(Cl)cc1 [4,5-bis(4-chlorophenyl)-1-hexyl-2-(3-hydroxy-4-methoxyphenyl)-1H-imidazole]
highest inhibition activity: inhibition activity, Staphylococcus aureus (Staphylococcus aureus) | inhibition activity, Escherichia coli (Escherichia coli) | inhibition activity, Pseudomonas aeruginosa (Pseudomonas aeruginosa) | inhibition activity, Candida albicans (Candida albicans)
